From US12268676B2, “Antiviral applications of picolinic acid and its derivatives” (INDIAN INSTITUTE OF SCIENCE, priority 2021, dated 2025)

Tested on: SARS-CoV-2 variants of concern (Alpha, Beta, Gamma, Delta)
Type: cell-based

In the case of O=C(O)c1ccccn1 [PA, pyridine-2-carboxylic acid], the “viral load abrogated by” value is reported as about 1 log.
